According to ChEMBL document CHEMBL3232736, “Antiproliferative activities of halogenated thieno[3,2-d]pyrimidines” (Bioorg Med Chem, 2014):
Converted amounts (≈) assume the structure as drawn. The source made the active and inactive calls. The calls are words filed in the database; no cut-off is given here.

Key:
L1210 [1] = assay: Cytotoxicity against mouse L1210 cells assessed as reduction in cell number after 48 hrs by cell counting assay; type: functional, cell-based; settings: L1210, 48 h
CCRF-CEM = assay: Cytotoxicity against human CCRF-CEM cells assessed as reduction in cell number after 72 hrs by cell counting assay; type: functional, cell-based
HeLa [2] = assay: Cytotoxicity against human HeLa cells assessed as reduction in cell number after 72 hrs by cell counting assay; type: functional, cell-based
Cryptococcus neoformans [3] = assay: Antifungal activity against Cryptococcus neoformans JEC20 assessed as growth inhibition after 48 hrs by microbroth dilution method; type: functional; settings: JEC20, 48 h
L1210 [4] = assay: Induction of apoptosis in mouse L1210 cells assessed as necrotic cell level at 5.4 uM after 48 hrs by Annexin-V/7-AAD staining-based flow cytometric analysis (reference value: 8.13%); type: functional
Cryptococcus neoformans [5] = assay: Antifungal activity against Cryptococcus neoformans B4546 assessed as growth inhibition after 48 hrs by microbroth dilution method; type: functional; settings: B4546, 48 h
L1210 [6] = assay: Cell cycle arrest in mouse L1210 cells at 5.4 uM after 24 to 48 hrs by propidium iodide staining-based flow cytometric analysis; type: functional
Vero = assay: Cytotoxicity against African green monkey Vero cells assessed as reduction in cell number; type: cell-based; settings: chlorocebus sabaeus
Staphylococcus aureus = assay: Antibacterial activity against methicillin-resistant Staphylococcus aureus subsp. aureus ATCC 43300 assessed as growth inhibition at 100 uM after 16 to 20 hrs by microbroth dilution method; type: functional, organism-based
L1210 [7] = assay: Induction of apoptosis in mouse L1210 cells assessed as early apoptosis at 5.4 uM after 48 hrs by Annexin-V/7-AAD staining-based flow cytometric analysis (rvb = 3.36%); type: functional
HEL = assay: Cytotoxicity against human HEL cells assessed as reduction in cell number by cell counting assay; type: functional
Bacillus spizizenii = assay: Antibacterial activity against Bacillus subtilis ATCC 6633 assessed as growth inhibition at 100 uM after 16 to 20 hrs by microbroth dilution method; type: functional
Escherichia coli = assay: Antibacterial activity against Escherichia coli ATCC 25922 assessed as growth inhibition at 100 uM after 16 to 20 hrs by microbroth dilution method; type: functional, organism-based
Pseudomonas aeruginosa = assay: Antibacterial activity against Pseudomonas aeruginosa ATCC 27853 assessed as growth inhibition at 100 uM after 16 to 20 hrs by microbroth dilution method; type: functional, organism-based
Candida albicans = assay: Antifungal activity against Candida albicans ATCC 10231 assessed as growth inhibition after 16 to 20 hrs by microbroth dilution method; type: functional
HeLa [8] = assay: Cytotoxicity against human HeLa cells assessed as reduction in cell number; type: functional
L1210 [9] = assay: Cytotoxicity against mouse L1210 cells assessed as reduction in cell viability after 48 hrs by MTT assay; type: functional, cell-based; settings: L1210, 48 h
L1210 [10] = assay: Induction of apoptosis in mouse L1210 cells assessed as late apoptosis at 5.4 uM after 48 hrs by Annexin-V/7-AAD staining-based flow cytometric analysis (reference value: 4.46%); type: functional
L1210 [11] = assay: Induction of apoptosis in mouse L1210 cells assessed as viable cell level at 5.4 uM after 48 hrs by Annexin-V/7-AAD staining-based flow cytometric analysis (reference value: 83%); type: functional
Enterococcus faecalis = assay: Antibacterial activity against vancomycin-resistant Enterococcus faecalis ATCC 51299 assessed as growth inhibition at 100 uM after 16 to 20 hrs by microbroth dilution method; type: functional, organism-based
L1210 [12] = assay: Cell cycle arrest in mouse L1210 cells at 0.32 uM after 24 to 48 hrs by propidium iodide staining-based flow cytometric analysis; type: functional
[13] = biological target: PI3-kinase p110-delta/p85-alpha (Homo sapiens) (UniProt P27986+O00329); assay: Inhibition of PIK3CD/PIK3R1 (unknown origin) at 5 uM; type: protein-complex assay
L1210 [14] = assay: Induction of apoptosis in mouse L1210 cells assessed as necrotic cells level at 1 uM after 48 hrs by Annexin-V/7-AAD staining-based flow cytometric analysis (reference value: 3.68%); type: functional
[15] = biological target: Hepatocyte growth factor receptor (Homo sapiens) (UniProt P08581); assay: Inhibition of MET (unknown origin) at 5 uM
[16] = biological target: Serine/threonine-protein kinase D2 (Homo sapiens) (UniProt Q9BZL6); assay: Inhibition of PRKD2 (unknown origin) at 5 uM
L1210 [17] = assay: Induction of apoptosis in mouse L1210 cells assessed as late cells level at 1 uM after 48 hrs by Annexin-V/7-AAD staining-based flow cytometric analysis (reference value: 1.25%); type: functional
L1210 [18] = assay: Induction of apoptosis in mouse L1210 cells assessed as early apoptotic cells level at 1 uM after 48 hrs by Annexin-V/7-AAD staining-based flow cytometric analysis (reference value: 2.59%); type: functional
[19] = biological target: Phosphatidylinositol 4,5-bisphosphate 3-kinase catalytic subunit gamma isoform (Homo sapiens) (UniProt P48736); assay: Inhibition of PIK3CG (unknown origin) at 5 uM
[20] = biological target: Phosphatidylinositol 4-phosphate 3-kinase C2 domain-containing subunit beta (Homo sapiens) (UniProt O00750); assay: Inhibition of PIK3C2B (unknown origin) at 5 uM
[21] = biological target: Leukocyte tyrosine kinase receptor (Homo sapiens) (UniProt P29376); assay: Inhibition of LTK (unknown origin) at 5 uM
[22] = biological target: Non-receptor tyrosine-protein kinase TYK2 (Homo sapiens) (UniProt P29597); assay: Inhibition of TYK2 (unknown origin) at 5 uM
[23] = biological target: Phosphatidylinositol 3-kinase catalytic subunit type 3 (Homo sapiens) (UniProt Q8NEB9); assay: Inhibition of PIK3C3 (unknown origin) at 5 uM
[24] = biological target: Phosphatidylinositol 4-phosphate 3-kinase C2 domain-containing subunit alpha (Homo sapiens) (UniProt O00443); assay: Inhibition of PIK3C2A (unknown origin) at 5 uM
[25] = tested on: Tyrosine-protein kinase JAK2 (Homo sapiens), O60674 [V617F]; assay: Inhibition of JAK2 JH1/JH2 domain V617F mutant (unknown origin) at 5 uM
[26] = biological target: Tyrosine-protein kinase JAK2 (Homo sapiens) (UniProt O60674); assay: Inhibition of JAK2 (unknown origin) at 5 uM
[27] = biological target: Serine/threonine-protein kinase mTOR (Homo sapiens) (UniProt P42345); assay: Inhibition of FRAP1 (unknown origin) at 5 uM
[28] = biological target: Serine/threonine-protein kinase D1 (Homo sapiens) (UniProt Q15139); assay: Inhibition of PRKD1 (unknown origin) at 5 uM
[29] = biological target: Tyrosine-protein kinase JAK3 (Homo sapiens) (UniProt P52333); assay: Inhibition of JAK3 (unknown origin) at 5 uM
[30] = biological target: Serine/threonine-protein kinase D3 (Homo sapiens) (UniProt O94806); assay: Inhibition of PRKCN (unknown origin) at 5 uM
[31] = biological target: Tyrosine-protein kinase JAK2 (Homo sapiens) (UniProt O60674); assay: Inhibition of JAK2 JH1/JH2 domain (unknown origin) at 5 uM
[32] = biological target: Proto-oncogene tyrosine-protein kinase Src (Homo sapiens) (UniProt P12931); assay: Inhibition of SRC N1 (unknown origin) at 5 uM
[33] = biological target: PI3-kinase p110-alpha/p85-alpha (Homo sapiens) (UniProt P27986+P42336); assay: Inhibition of PIK3CA/PIK3R1 (unknown origin) at 5 uM; type: protein-complex assay
[34] = biological target: Tyrosine-protein kinase JAK1 (Homo sapiens) (UniProt P23458); assay: Inhibition of JAK1 (unknown origin) at 5 uM
L1210 [35] = assay: Induction of apoptosis in mouse L1210 cells assessed as viable cells level at 1 uM after 48 hrs by Annexin-V/7-AAD staining-based flow cytometric analysis (reference value: 92.5%); type: functional
[36] = biological target: Proto-oncogene tyrosine-protein kinase Src (Homo sapiens) (UniProt P12931); assay: Inhibition of SRC (unknown origin) at 5 uM

Chain of Tyrosine-protein kinase JAK2 (Homo sapiens) (O60674 whole entry, the tested form may be a part): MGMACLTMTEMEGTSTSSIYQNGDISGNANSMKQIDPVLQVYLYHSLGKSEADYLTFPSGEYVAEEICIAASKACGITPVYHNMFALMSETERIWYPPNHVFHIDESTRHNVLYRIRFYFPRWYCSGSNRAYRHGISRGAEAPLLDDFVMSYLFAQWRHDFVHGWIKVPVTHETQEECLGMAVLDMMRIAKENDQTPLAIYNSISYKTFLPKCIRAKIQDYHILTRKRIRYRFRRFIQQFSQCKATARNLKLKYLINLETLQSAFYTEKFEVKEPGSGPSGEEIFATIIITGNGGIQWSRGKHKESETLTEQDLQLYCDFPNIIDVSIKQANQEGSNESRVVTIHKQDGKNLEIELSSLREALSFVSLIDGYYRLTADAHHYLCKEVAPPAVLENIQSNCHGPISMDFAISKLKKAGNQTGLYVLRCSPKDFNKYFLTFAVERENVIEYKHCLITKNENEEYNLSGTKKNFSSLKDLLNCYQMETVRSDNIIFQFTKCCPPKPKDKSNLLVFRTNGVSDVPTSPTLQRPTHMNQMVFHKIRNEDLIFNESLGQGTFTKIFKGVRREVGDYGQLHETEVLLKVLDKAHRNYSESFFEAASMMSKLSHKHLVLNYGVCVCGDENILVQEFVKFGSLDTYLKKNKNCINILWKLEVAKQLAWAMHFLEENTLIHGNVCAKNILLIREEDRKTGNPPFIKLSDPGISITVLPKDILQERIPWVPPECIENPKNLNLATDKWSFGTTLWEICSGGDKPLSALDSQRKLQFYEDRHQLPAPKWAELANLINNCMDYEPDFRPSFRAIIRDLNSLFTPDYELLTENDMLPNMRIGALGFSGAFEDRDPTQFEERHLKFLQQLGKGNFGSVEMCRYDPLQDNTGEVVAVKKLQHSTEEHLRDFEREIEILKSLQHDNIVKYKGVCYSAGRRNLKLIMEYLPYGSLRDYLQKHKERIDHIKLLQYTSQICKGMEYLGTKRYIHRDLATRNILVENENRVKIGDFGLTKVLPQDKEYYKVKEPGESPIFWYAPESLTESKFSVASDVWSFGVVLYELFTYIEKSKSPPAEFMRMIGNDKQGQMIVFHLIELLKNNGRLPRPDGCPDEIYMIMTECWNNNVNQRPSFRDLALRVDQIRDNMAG
Chain of Proto-oncogene tyrosine-protein kinase Src (Homo sapiens) (P12931 2-536 limits assumed): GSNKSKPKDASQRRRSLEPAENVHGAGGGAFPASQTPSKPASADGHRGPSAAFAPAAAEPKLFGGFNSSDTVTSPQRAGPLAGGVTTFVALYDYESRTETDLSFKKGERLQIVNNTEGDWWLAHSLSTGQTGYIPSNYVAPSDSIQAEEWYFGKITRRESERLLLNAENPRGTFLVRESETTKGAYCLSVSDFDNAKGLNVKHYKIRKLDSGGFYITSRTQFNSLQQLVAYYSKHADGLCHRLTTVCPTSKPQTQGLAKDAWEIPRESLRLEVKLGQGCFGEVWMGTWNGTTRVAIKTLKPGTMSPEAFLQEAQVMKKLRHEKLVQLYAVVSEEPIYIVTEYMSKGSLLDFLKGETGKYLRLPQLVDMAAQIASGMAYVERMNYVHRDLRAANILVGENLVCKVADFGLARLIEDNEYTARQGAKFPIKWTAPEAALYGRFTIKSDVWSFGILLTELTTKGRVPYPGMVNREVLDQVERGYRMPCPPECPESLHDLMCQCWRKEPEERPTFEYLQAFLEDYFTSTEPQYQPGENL
Chain of Non-receptor tyrosine-protein kinase TYK2 (Homo sapiens) (P29597 whole entry): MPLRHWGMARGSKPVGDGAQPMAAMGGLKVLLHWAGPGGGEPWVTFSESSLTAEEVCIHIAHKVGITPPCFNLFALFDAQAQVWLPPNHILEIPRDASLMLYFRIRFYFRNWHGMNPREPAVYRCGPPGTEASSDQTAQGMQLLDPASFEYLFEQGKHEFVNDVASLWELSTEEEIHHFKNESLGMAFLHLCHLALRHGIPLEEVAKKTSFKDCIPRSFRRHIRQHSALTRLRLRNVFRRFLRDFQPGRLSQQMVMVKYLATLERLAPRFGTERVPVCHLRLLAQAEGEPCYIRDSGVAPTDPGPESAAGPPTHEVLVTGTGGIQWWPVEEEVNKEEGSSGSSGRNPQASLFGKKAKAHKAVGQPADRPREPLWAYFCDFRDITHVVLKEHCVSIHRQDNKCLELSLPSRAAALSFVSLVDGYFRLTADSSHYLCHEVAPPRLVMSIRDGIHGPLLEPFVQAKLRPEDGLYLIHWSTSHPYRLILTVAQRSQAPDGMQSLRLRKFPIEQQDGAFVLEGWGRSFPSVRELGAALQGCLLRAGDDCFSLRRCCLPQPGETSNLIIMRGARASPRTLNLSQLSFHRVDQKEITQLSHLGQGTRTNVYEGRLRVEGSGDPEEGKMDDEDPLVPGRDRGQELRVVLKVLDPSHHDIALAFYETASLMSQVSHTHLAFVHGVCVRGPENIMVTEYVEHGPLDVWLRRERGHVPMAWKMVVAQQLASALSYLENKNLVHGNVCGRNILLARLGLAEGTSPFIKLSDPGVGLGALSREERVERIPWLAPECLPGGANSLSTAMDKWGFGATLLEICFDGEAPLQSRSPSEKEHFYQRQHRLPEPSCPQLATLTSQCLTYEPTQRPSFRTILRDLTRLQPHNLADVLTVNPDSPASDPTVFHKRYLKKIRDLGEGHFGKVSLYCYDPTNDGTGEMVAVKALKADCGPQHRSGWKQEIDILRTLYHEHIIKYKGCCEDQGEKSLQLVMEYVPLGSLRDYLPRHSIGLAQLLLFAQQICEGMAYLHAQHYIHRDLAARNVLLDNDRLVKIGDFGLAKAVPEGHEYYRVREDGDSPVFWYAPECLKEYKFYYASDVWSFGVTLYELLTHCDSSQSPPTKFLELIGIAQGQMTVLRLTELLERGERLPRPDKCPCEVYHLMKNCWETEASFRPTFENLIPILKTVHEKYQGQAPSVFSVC
Chain of Tyrosine-protein kinase JAK2 (Homo sapiens), O60674 [V617F] (O60674 whole entry V617F, the tested form may be a part): as the sequence (O60674 whole entry, the tested form may be a part) above, with V617F counted along it
Chain of Tyrosine-protein kinase JAK1 (Homo sapiens) (P23458 whole entry): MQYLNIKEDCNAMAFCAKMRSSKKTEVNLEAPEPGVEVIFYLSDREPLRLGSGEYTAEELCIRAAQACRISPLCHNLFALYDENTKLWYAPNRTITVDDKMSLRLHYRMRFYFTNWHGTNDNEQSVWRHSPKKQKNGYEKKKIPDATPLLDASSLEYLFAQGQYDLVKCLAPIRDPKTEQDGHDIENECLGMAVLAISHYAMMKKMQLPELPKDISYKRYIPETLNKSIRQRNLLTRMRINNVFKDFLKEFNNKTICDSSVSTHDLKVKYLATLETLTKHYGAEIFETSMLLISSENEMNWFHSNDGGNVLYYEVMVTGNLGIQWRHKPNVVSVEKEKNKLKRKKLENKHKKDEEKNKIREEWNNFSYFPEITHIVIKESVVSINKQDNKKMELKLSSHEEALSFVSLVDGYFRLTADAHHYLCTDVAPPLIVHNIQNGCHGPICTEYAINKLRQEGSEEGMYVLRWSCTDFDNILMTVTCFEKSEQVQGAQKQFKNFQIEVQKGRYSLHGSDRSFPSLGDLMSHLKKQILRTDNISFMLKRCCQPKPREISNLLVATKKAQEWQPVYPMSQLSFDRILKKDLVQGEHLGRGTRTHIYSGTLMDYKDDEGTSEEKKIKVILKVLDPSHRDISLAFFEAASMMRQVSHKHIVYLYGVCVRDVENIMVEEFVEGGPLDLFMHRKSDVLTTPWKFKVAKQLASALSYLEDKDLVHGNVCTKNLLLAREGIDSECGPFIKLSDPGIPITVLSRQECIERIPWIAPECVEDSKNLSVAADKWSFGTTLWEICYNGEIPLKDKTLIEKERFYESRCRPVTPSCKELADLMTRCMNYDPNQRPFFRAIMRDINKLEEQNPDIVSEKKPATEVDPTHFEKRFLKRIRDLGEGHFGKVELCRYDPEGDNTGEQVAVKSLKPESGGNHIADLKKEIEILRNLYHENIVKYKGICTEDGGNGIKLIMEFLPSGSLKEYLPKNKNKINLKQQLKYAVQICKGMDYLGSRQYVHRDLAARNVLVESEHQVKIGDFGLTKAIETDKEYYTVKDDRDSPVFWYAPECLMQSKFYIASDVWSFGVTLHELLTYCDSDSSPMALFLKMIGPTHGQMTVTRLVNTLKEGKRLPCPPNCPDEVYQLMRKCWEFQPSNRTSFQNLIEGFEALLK
Chain of Phosphatidylinositol 3-kinase catalytic subunit type 3 (Homo sapiens) (Q8NEB9 whole entry, the tested form may be a part): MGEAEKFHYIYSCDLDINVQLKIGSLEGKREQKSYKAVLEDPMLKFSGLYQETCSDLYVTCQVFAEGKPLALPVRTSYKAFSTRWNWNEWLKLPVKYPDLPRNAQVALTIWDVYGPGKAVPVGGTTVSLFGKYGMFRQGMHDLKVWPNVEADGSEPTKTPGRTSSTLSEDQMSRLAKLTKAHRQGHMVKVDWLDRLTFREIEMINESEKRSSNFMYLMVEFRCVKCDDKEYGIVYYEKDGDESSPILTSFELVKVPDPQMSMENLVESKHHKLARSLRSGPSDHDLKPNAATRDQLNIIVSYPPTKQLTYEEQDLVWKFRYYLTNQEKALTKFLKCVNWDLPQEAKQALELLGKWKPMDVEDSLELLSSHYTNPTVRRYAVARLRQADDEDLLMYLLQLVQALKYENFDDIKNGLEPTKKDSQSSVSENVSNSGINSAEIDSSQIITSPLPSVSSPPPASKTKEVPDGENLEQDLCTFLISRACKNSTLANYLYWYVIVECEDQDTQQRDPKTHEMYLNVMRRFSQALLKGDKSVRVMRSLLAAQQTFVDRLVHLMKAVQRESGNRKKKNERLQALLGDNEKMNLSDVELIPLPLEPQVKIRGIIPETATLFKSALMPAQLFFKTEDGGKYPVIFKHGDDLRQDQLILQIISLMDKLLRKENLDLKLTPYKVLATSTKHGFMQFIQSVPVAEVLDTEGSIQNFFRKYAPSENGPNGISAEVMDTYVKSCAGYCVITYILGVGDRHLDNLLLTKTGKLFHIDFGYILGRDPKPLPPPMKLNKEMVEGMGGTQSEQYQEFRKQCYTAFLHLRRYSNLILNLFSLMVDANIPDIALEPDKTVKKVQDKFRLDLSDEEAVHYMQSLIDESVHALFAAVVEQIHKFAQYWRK

## O=c1[nH]cc(F)c(=O)[nH]1 [FLUOROURACIL]
L1210 [1]
  IC50: 0.33 µM

## O=c1[nH]c(=O)c2scc(Br)c2[nH]1
L1210 [1]
  IC50: > 250 µM
CCRF-CEM
  IC50: > 250 µM
HeLa [2]
  IC50: > 250 µM

## Clc1nc(Cl)c2scc(Br)c2n1
Cryptococcus neoformans [3]
  MIC95: 5.8 µM (≈ 1.65 µg/mL)
L1210 [1]
  IC50: 5.4 µM
L1210 [4]
  Activity: 1.84%
Cryptococcus neoformans [5]
  MIC95: 7 µM (≈ 1.99 µg/mL)
L1210 [6]
  Activity: inactive
Vero
  MIC99: 20 µM (≈ 5.68 µg/mL)
Staphylococcus aureus
  inhibition: inactive
L1210 [7]
  Activity: 33.3%
HEL
  MIC99: 20 µM (≈ 5.68 µg/mL)
Bacillus spizizenii
  inhibition: inactive
Escherichia coli
  inhibition: inactive
Pseudomonas aeruginosa
  inhibition: inactive
CCRF-CEM
  IC50: 14 µM
HeLa [2]
  IC50: 4.3 µM
Candida albicans
  MIC95: 10.7 µM (≈ 3.04 µg/mL)
HeLa [8]
  MIC99: 20 µM (≈ 5.68 µg/mL)
L1210 [9]
  IC50: 5.4 µM
L1210 [10]
  Activity: 21.8%
L1210 [11]
  Activity: 43.1%
Enterococcus faecalis
  inhibition: inactive

## Clc1nc(Cl)c2sccc2n1
L1210 [12]
  Activity: inactive
Cryptococcus neoformans [3]
  MIC95: 16.6 µM (≈ 3.4 µg/mL)
L1210 [1]
  IC50: 0.67 µM
Cryptococcus neoformans [5]
  MIC95: 34.6 µM (≈ 7.1 µg/mL)
Vero
  MIC99: 20 µM (≈ 4.1 µg/mL)
Staphylococcus aureus
  inhibition: inactive
HEL
  MIC99: 100 µM (≈ 20.5 µg/mL)
[13]
  inhibition: < 40%
Bacillus spizizenii
  inhibition at 100 µM: 43%
Escherichia coli
  inhibition: inactive
L1210 [14]
  Activity: 1.29%
[15]
  inhibition: < 40%
[16]
  inhibition: < 40%
L1210 [17]
  Activity: 4.72%
L1210 [18]
  Activity: 56%
[19]
  inhibition: < 40%
[20]
  inhibition: < 40%
[21]
  inhibition: < 40%
Pseudomonas aeruginosa
  inhibition: inactive
[22]
  inhibition: < 40%
[23]
  inhibition: < 40%
CCRF-CEM
  IC50: 5.2 µM
HeLa [2]
  IC50: 3.9 µM
Candida albicans
  MIC95: 23.4 µM (≈ 4.8 µg/mL)
[24]
  inhibition: < 40%
HeLa [8]
  MIC99: 4 µM (≈ 0.82 µg/mL)
[25]
  inhibition: < 40%
[26]
  inhibition: < 40%
L1210 [9]
  IC50: 0.32 µM
[27]
  inhibition: < 40%
[28]
  inhibition: < 40%
[29]
  inhibition: < 40%
[30]
  inhibition: < 40%
[31]
  inhibition: < 40%
[32]
  inhibition: < 40%
[33]
  inhibition: < 40%
[34]
  inhibition: < 40%
L1210 [35]
  Activity: 37.9%
Enterococcus faecalis
  inhibition: inactive
[36]
  inhibition: < 40%
